From patent publication US20230270748A1, “COMBINATION OF A BCL-2 INHIBITOR AND A HYPOMETHYLATING AGENT FOR TREATING CANCERS, USES AND PHARMACEUTICAL COMPOSITIONS THEREOF” (LES LABORATOIRES SERVIER, priority 2020, published 2023) come the findings set out here.

What all share (assay type): cell-based
For assay [1], the system named is AML cell line OCI-AML3. The assay is described as follows: Cell viability (CellTiterGlo, 3 days), single agents and combination, in OCI-AML3. Conditions: Homo sapiens, OCI-AML-3, 72 h; OCI-AML3, single agent, 3 days incubation, CTG signal. In general terms: ATP-based viability assays read luminescence as a measure of living cells.
The test system of assay [2] is AML cell line HL-60. The assay is described as follows: Cell viability (CellTiterGlo, 3 days), single agents and combination, in HL-60. Particulars: Homo sapiens, 72 h; HL-60, single agent, 3 days incubation, CTG signal.
Assay [3] relates to AML cell line MV4;11. Kind of assay: Cell viability (CellTiterGlo, 3 days), single agents and combination, in MV4;11. Conditions: Homo sapiens, 72 h; MV4;11, single agent, 3 days incubation, CTG signal.
The subject of assay [4] is AML cell line EOL-1. Kind of assay: Cell viability (CellTiterGlo, 3 days), single agents and combination, in EOL-1. Conditions: Homo sapiens, EOL1, 72 h; EOL-1, single agent, 3 days incubation, CTG signal.

Each structure is given as a SMILES string. Some results are limits rather than exact numbers.

By IC50 is commonly meant the concentration that gives 50% inhibition.

`Nc1ncn([C@@H]2O[C@H](CO)[C@@H](O)[C@H]2O)c(=O)n1` [5-azacitidine, azacitidine]: the IC50 in assay [1] is 7100 nM; in assay [2], above 10000 nM; in assay [3], 689 nM; in assay [4], 187 nM.

For `Cc1c(N(C(=O)c2cc(-c3cc(Cl)ccc3C(=O)N3Cc4ccccc4C[C@H]3CN3CCOCC3)n(C)c2C)c2ccc(O)cc2)cc(C#N)n1C` [Compound A, 5-(5-chloro-2-{[(3S)-3-(morpholin-4-ylmethyl)-3,4-dihydroisoquinolin-2(1H)-yl]carbonyl}phenyl)-N-(5-cyano-1,2-dimethyl-1H-pyrrol-3-yl)-N-(4-hydroxyphenyl)-1,2-dimethyl-1H-pyrrole-3-carboxamide], the IC50 in assay [1] is 5690 nM; in assay [2] it was 3100 nM; in assay [3] it was 3 nM; in assay [4], 18 nM.
